The values that follow come from patent US7625713B2, “Process for identifying a ligand that binds to the NEP binding site for the SMR1 pentapeptide” (Institut Pasteur, priority 2000, dated 2009).

The target of experiment [1] is T1, NEP (Rattus norvegicus, UniProt P07861).
T1 construct: incubations of membrane and fresh tissue slice preparations from nervous tissues; from tissue; host or cells: dorsal spinal cord of male Wistar rats (fresh slices or 100 000 x g membrane fraction)
T1 sequence (P07861 1-750): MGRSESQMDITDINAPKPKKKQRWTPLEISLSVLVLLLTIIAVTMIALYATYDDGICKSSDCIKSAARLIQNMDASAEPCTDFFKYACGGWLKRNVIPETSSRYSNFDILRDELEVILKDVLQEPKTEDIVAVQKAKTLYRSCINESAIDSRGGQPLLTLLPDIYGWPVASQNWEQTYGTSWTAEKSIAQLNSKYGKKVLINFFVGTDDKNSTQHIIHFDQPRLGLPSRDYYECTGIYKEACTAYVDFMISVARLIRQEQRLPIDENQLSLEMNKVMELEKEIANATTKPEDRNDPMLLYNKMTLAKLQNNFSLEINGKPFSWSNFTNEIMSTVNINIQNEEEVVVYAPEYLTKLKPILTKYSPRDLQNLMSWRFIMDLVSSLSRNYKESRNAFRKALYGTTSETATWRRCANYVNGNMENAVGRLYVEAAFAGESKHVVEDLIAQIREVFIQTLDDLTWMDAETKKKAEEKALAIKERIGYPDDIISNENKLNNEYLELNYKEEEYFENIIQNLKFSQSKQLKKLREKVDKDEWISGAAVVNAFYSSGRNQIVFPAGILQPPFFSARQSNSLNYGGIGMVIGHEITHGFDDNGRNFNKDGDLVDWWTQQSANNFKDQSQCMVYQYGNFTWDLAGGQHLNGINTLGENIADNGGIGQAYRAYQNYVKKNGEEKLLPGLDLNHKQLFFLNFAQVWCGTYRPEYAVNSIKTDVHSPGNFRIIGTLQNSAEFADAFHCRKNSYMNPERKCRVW
The experiment is described as follows: Met-enkephalinase activity of rat spinal cord slices, Met-enkephalin RIA. The experiment is classed as biochemical. Conditions: 10 μM, fresh spinal cord tissue, 20 min at 25° C. The protocol: FIG. 2-A: […] The organs are rapidly removed, dissected on ice, freed of nerve fibers and of adipose tissues and then washed in cold oxygenated glucose- and bicarbonate-containing Krebs Ringer (KRBG) solution, whose composition is the following: 120 mM NaCl-5 mM KCl-1.2 mM KH2PO4-27.5 mM NaHCO3-2.6 mM CaCl2-0.67 mM MgSO4-5.9 mM glucose. The slices of tissues are prepared either manually with the aid of a scalpel (1-2 mm thick), or mechanically with the aid of a “Tissue Chopper” (1 mm thick). Slices are then dispersed into reaction tubes where they are subjected to three successive washes in ice-cold oxygenated KRBG. […] For the experiments of analysis of the NEP peptidase activity, an ex vivo model using incubations of membrane and fresh tissue slice preparations from nervous tissues that are known to be appropriate for exploring NEP peptidase activity: i.e. the dorsal zone of rat spinal cord, was first developed. The metabolism rate of the NEP-sensitive peptides was measured using the both NEP substrates involved in the signaling of the nociceptive response: the neuropeptides Met-enkephalin and Substance P. […] (NEN, 12.5-25 nM) were used. The objective was to measure the NEP-specific endoproteolysis of these substrates. […] Furthermore, for studying the functional role of […] NO: 2), the reaction was carried out in the presence of the SMR1-peptide alone or combined with specific inhibitors of membrane peptidases which could inactivate the […] […] Herein, a competitive RIA system has been used: the quantity of radioactive antigen bound to the antibody decreases in a manner inversely proportional to the quantity of antigen contained in the standard solution or in the sample. […] The activity of enkephalinase NEP is monitored by quantification of the disappearance of the initial Met-enkephalin substrate. […] The radiolabeled antigen is iodinated Met-enkephalin (^125I-Met-Enk enkephalin) with a specific radioactivity estimated at 3000 Ci/mmol. […] After centrifugation, the bound radioactivity of the precipitate is quantified using a gamma-spectrometer.

In experiment [2] the target is T1, NEP. Briefly: Met-enkephalin hydrolysis by rat spinal cord slices and membrane preparations, RP-HPLC analysis. The class given is biochemical. As to conditions: 10 μM alone, spinal cord slices, 20 min at 25° C., 10 μM Met-enkephalin. The protocol:
FIG. 2-B: […] Retention time) recovered after 20 min. incubation at 25° C. with 1 mg fresh tissue slices in a 1 ml final volume of KRBG buffer. The organs are rapidly removed, dissected on ice, freed of nerve fibers and of adipose tissues and then washed in cold oxygenated glucose- and bicarbonate-containing Krebs Ringer (KRBG) solution, whose composition is the following: 120 mM NaCl-5 mM KCl-1.2 mM KH2PO4-27.5 mM NaHCO3-2.6 mM CaCl2-0.67 mM MgSO4-5.9 mM glucose. The slices of tissues are prepared either manually with the aid of a scalpel (1-2 mm thick), or mechanically with the aid of a “Tissue Chopper” (1 mm thick). Slices are then dispersed into reaction tubes where they are subjected to three successive washes in ice-cold oxygenated KRBG. […] The organs dissected out and washed in ice-cold KRBG are homogenized at 4° C. in 10 volumes (vol./wt.) of 50 mM Tris/HCl buffered at pH 7.2, using a Teflon-glass homogenizer (3×5 sec.). […] The metabolism rate of the NEP-sensitive peptides was measured using the both NEP substrates involved in the signaling of the nociceptive response: the neuropeptides Met-enkephalin and Substance P. […] Their identification and relative quantification (peak height) are checked by continuously monitoring the UV absorbance at 254 nm of column outflow. […]

Another experiment concerns male rats. The experiment is described as follows: Pin pain test. The class given is in vivo, rat. The procedure:
The 3-min test session was performed 5 min after intravenous. rat tail vein administration of sialorphin or its vehicle. Naloxone (0.3 mg per kg body weight) was injected subcutaneously 15 min before sialorphin administration. Time in centre field sector (FIG. 6-C) (central square of the open-field without pin) and activity (FIGS. 6-A and 6-B) in peripheral squares (overlayed with pins) during the 3-min test session. Each value represents the mean±sem of 8 animals per group. […] Control group corresponded to pain response in vehicle-treated rats. 50 μg/kg sialorphin, 100 μg/kg sialorphin, 100 μg/kg sialorphin plus naloxone 0.3 mg/kg.
To extend the insight into the in vivo possible antinociceptive property of sialorphin through enkephalin-degrading enzyme inhibition, its effects were assessed in rat model of pain, i.e. the pin pain test, (Hebert et al. (1999) Physiology & Behavior 67, 99-105) in which the various behavioural parameters of pain responses were recorded with a 3-min cutoff time.
The in vivo activity of sialorphin was tested on the pin pain assay using male rats (350-400 g, Charles Rivers). The experimental device consists in an open-field (45×45×40 cm) which is divided into nine equal squares (150×150 mm), eight of them are peripheral and one is central. The peripheral squares are overlayed with stainless steel pins (2/cm2, length 8 mm and diameter 0.6 mm). The test consisted in placing the rat in the central square of the open-field and recording its different behaviours (cut-off time, 3 min). Two days before the pain test, the rats were familiarised with the experimental device without pins for 20 min, so as to reduce the stress linked to the spatial neophobia. All statistical analyses were carried out using the Statview 5 statistical package.

The mark [3] stands for this setting: naloxone 0.3 mg per kg subcutaneous, prior to sialorphin.

On to `CC(C)C[C@H](NP(=O)(O)O[C@@H]1O[C@@H](C)[C@H](O)[C@@H](O)[C@H]1O)C(=O)N[C@@H](Cc1c[nH]c2ccccc12)C(=O)O` [Phosphoramidon, reference compound], for which, at NEP [1], the “protection of Met-enkephalin from degradation” value is listed as 96%. In addition, the “inhibition of Met-enkephalinase activity (Met-enkephalin degradation)” value at NEP [2] is listed as “complete inhibition”.
Take `O=C(O)CNC(=O)C(CS)Cc1ccccc1` (stereo not shown) [Thiorphan]: the “protection of Met-enkephalin from degradation” value at NEP [1] is reported as 100%.
Regarding `C=CCN1CC[C@]23c4c5ccc(O)c4O[C@H]2C(=O)CC[C@@]3(O)[C@H]1C5` [naloxone, reference compound], in the experiment on male rats (setting [3]), the “reversal of the sialorphin-effect on behavioural parameters of noxious response” value is 42-63%, the “reversal of the sialorphin-effect on time in central area” value was determined as 56% and the “reversal of the sialorphin-effect on vocalisation parameter” value came out at 20%. Moreover, the “time in the central area of the open-field” value in the experiment on male rats (sialorphin plus naloxone 0.3 mg/kg s.c. 15 min before sialorphin) stood at 112.38 ± 17.44 s.
